Active and inactive are the calls of the source. No rule for the calls is given here.
System: rodent lifetime carcinogenesis bioassay, tumor incidence TD50
Test: chronic cancer bioassays in animals – CPDB, compiled studies (AID 1745844)

## C=CCN(N=O)C(N)=O
rat, strain Fischer 344, females, by gavage, site: forestomach, lesion: one or several types, types not named, dosed 30 weeks, study length 104 weeks
  TD50: 0.476 mg/kg/day
rat, strain Fischer 344, females, by gavage, site: mammary gland, lesion: adenocarcinoma, dosed 30 weeks, study length 104 weeks
  TD50: 0.601 mg/kg/day
rat, strain Fischer 344, females, by gavage, site: uterus, lesion: several types, types named in the paper, dosed 30 weeks, study length 104 weeks
  TD50: 1.87 mg/kg/day
rat, strain Fischer 344, males, by gavage, site: Zymbal's gland, lesion: one or several types, types not named, dosed 30 weeks, study length 104 weeks
  TD50: 0.541 mg/kg/day
rat, strain Fischer 344, males, by gavage, site: colon, lesion: one or several types, types not named, dosed 30 weeks, study length 104 weeks
  TD50: 0.541 mg/kg/day
rat, strain Fischer 344, males, by gavage, site: forestomach, lesion: one or several types, types not named, dosed 30 weeks, study length 104 weeks
  TD50: 0.266 mg/kg/day
rat, strain Fischer 344, males, by gavage, site: lung, lesion: several types, types named in the paper, dosed 30 weeks, study length 104 weeks
  TD50: 0.421 mg/kg/day

## CC(C)COC(=O)c1ccc(O)cc1
mouse, strain ICR/Jcl, females, in feed, site: any site (literature study), lesion: several types, types named in the paper, dosed 102 weeks, study length 106 weeks
  TD50: 12300 mg/kg/day (inactive)
mouse, strain ICR/Jcl, females, in feed, site: liver, lesion: one or several types, types not named, dosed 102 weeks, study length 106 weeks
  carcinogen call: negative (inactive)
mouse, strain ICR/Jcl, females, in feed, site: lung, lesion: one or several types, types not named, dosed 102 weeks, study length 106 weeks
  TD50: 37200 mg/kg/day (inactive)
mouse, strain ICR/Jcl, males, in feed, site: any site (literature study), lesion: several types, types named in the paper, dosed 102 weeks, study length 104 weeks
  TD50: 6570 mg/kg/day (inactive)
mouse, strain ICR/Jcl, males, in feed, site: liver, lesion: one or several types, types not named, dosed 102 weeks, study length 104 weeks
  TD50: 26300 mg/kg/day (inactive)
mouse, strain ICR/Jcl, males, in feed, site: lung, lesion: one or several types, types not named, dosed 102 weeks, study length 104 weeks
  carcinogen call: negative (inactive)

## OB(O)O
mouse, strain B6C3F1, females, in feed, site: any site (literature study), lesion: several types, types named in the paper, dosed 103 weeks, study length 105 weeks
  carcinogen call: negative (inactive)
mouse, strain B6C3F1, females, in feed, site: liver, lesion: hepatocellular adenoma + hepatocellular carcinoma + neoplastic nodule, dosed 103 weeks, study length 105 weeks
  TD50: 31000 mg/kg/day
mouse, strain B6C3F1, females, in feed, site: lung, lesion: alveolar/bronchiolar adenoma + alveolar/bronchiolar carcinoma, dosed 103 weeks, study length 105 weeks
  TD50: 4190 mg/kg/day
mouse, strain B6C3F1, males, in feed, site: any site (literature study), lesion: several types, types named in the paper, dosed 103 weeks, study length 105 weeks
  TD50: 500 mg/kg/day
mouse, strain B6C3F1, males, in feed, site: liver, lesion: hepatocellular adenoma + hepatocellular carcinoma + neoplastic nodule, dosed 103 weeks, study length 105 weeks
  TD50: 638 mg/kg/day
mouse, strain B6C3F1, males, in feed, site: liver, lesion: hepatocellular adenoma + hepatocellular carcinoma, dosed 103 weeks, study length 105 weeks
  TD50: 638 mg/kg/day (inactive)
mouse, strain B6C3F1, males, in feed, site: liver, lesion: hepatocellular carcinoma, dosed 103 weeks, study length 105 weeks
  TD50: 1120 mg/kg/day
mouse, strain B6C3F1, males, in feed, site: lung, lesion: alveolar/bronchiolar adenoma + alveolar/bronchiolar carcinoma, dosed 103 weeks, study length 105 weeks
  TD50: 38600 mg/kg/day
mouse, strain B6C3F1, males, in feed, site: subcutaneous tissue, lesion: fibrosarcoma + fibroma + neurofibrosarcoma + sarcoma, NOS, dosed 103 weeks, study length 105 weeks
  TD50: 706 mg/kg/day
mouse, strain B6C3F1, males, in feed, site: subcutaneous tissue, lesion: fibrosarcoma + neurofibrosarcoma + sarcoma, NOS, dosed 103 weeks, study length 105 weeks
  TD50: 1070 mg/kg/day

## CN=[N+](C)[O-]
rat, strain Fischer 344, males, by gavage, site: Zymbal's gland, lesion: carcinoma, dosed 30 weeks, study length 65 weeks
  TD50: 0.204 mg/kg/day
rat, strain Fischer 344, males, by gavage, site: colon, lesion: malignant tumor, dosed 30 weeks, study length 65 weeks
  TD50: 0.171 mg/kg/day
rat, strain Fischer 344, males, by gavage, site: colon, lesion: one or several types, types not named, dosed 30 weeks, study length 65 weeks
  TD50: 0.102 mg/kg/day
rat, strain Fischer 344, males, by gavage, site: kidney, lesion: mesenchymal neoplasm, dosed 30 weeks, study length 65 weeks
  TD50: 0.3 mg/kg/day
rat, strain Fischer 344, males, by gavage, site: liver, lesion: one or several types, types not named, dosed 30 weeks, study length 65 weeks
  carcinogen call: negative (inactive)
rat, strain Fischer 344, males, in drinking water, site: colon, lesion: several types, types named in the paper, dosed 30 weeks, study length 100 weeks
  TD50: 0.585 mg/kg/day
rat, strain Fischer 344, males, in drinking water, site: kidney, lesion: several types, types named in the paper, dosed 30 weeks, study length 100 weeks
  TD50: 0.388 mg/kg/day
rat, strain Fischer 344, males, in drinking water, site: liver, lesion: hemangiosarcoma, dosed 30 weeks, study length 100 weeks
  TD50: 0.982 mg/kg/day
rat, strain Fischer 344, males, in drinking water, site: liver, lesion: hepatocellular carcinoma, dosed 30 weeks, study length 100 weeks
  TD50: 0.0677 mg/kg/day
rat, strain Fischer 344, males, in drinking water, site: liver, lesion: neoplastic nodule, dosed 30 weeks, study length 100 weeks
  TD50: 28.6 mg/kg/day
rat, strain Fischer 344, males, in drinking water, site: liver, lesion: several types, types named in the paper, dosed 30 weeks, study length 100 weeks
  TD50: 0.0302 mg/kg/day

## CC1(C)C(=O)Nc2ccc(C3=NNC(=O)CC3)cc21
rat, strain Fischer 344, females, in feed, site: adrenal medulla, lesion: pheochromocytoma, benign, dosed 104 weeks, study length 104 weeks
  TD50: 5.05 mg/kg/day
rat, strain Fischer 344, females, in feed, site: adrenal medulla, lesion: several types, types named in the paper, dosed 104 weeks, study length 104 weeks
  TD50: 4.82 mg/kg/day
rat, strain Fischer 344, males, in feed, site: adrenal medulla, lesion: pheochromocytoma, benign, dosed 95 weeks, study length 95 weeks
  TD50: 1.38 mg/kg/day
rat, strain Fischer 344, males, in feed, site: adrenal medulla, lesion: pheochromocytoma, malignant, dosed 95 weeks, study length 95 weeks
  TD50: 23.8 mg/kg/day
rat, strain Fischer 344, males, in feed, site: adrenal medulla, lesion: several types, types named in the paper, dosed 95 weeks, study length 95 weeks
  TD50: 1.27 mg/kg/day

## CN(CCCC(=O)c1cccnc1)N=O
hamster, strain Syrian Golden, females, in drinking water, site: liver, lesion: hepatocellular carcinoma, dosed 87 weeks, study length 87 weeks
  TD50: 5.13 mg/kg/day (inactive)
hamster, strain Syrian Golden, females, in drinking water, site: lung, lesion: several types, types named in the paper, dosed 87 weeks, study length 87 weeks
  carcinogen call: negative (inactive)
hamster, strain Syrian Golden, females, in drinking water, site: pancreas, lesion: adenocarcinoma, dosed 87 weeks, study length 87 weeks
  carcinogen call: negative (inactive)
hamster, strain Syrian Golden, females, in drinking water, site: pancreatic islets, lesion: islet-cell adenoma, dosed 87 weeks, study length 87 weeks
  carcinogen call: negative (inactive)
rat, strain Fischer 344, males, in drinking water, site: all sites, lesion: several types, types named in the paper, dosed 118 weeks, study length 128 weeks
  TD50: 0.14 mg/kg/day
rat, strain Fischer 344, males, in drinking water, site: liver, lesion: adenoma, dosed 118 weeks, study length 128 weeks
  TD50: 0.871 mg/kg/day
rat, strain Fischer 344, males, in drinking water, site: liver, lesion: hepatoma, dosed 118 weeks, study length 128 weeks
  TD50: 2.74 mg/kg/day
rat, strain Fischer 344, males, in drinking water, site: liver, lesion: several types, types named in the paper, dosed 111 weeks, study length 111 weeks
  TD50: 2.97 mg/kg/day
rat, strain Fischer 344, males, in drinking water, site: liver, lesion: several types, types named in the paper, dosed 118 weeks, study length 128 weeks
  TD50: 0.651 mg/kg/day
rat, strain Fischer 344, males, in drinking water, site: lung, lesion: adenocarcinoma, dosed 111 weeks, study length 111 weeks
  TD50: 0.148 mg/kg/day
rat, strain Fischer 344, males, in drinking water, site: lung, lesion: adenocarcinoma, dosed 118 weeks, study length 128 weeks
  TD50: 0.672 mg/kg/day
rat, strain Fischer 344, males, in drinking water, site: lung, lesion: adenoma, dosed 111 weeks, study length 111 weeks
  TD50: 0.279 mg/kg/day
rat, strain Fischer 344, males, in drinking water, site: lung, lesion: adenoma, dosed 118 weeks, study length 128 weeks
  TD50: 0.343 mg/kg/day
rat, strain Fischer 344, males, in drinking water, site: lung, lesion: adenosquamous carcinoma, dosed 118 weeks, study length 128 weeks
  TD50: 1.46 mg/kg/day
rat, strain Fischer 344, males, in drinking water, site: lung, lesion: several types, types named in the paper, dosed 111 weeks, study length 111 weeks
  TD50: 0.0688 mg/kg/day
rat, strain Fischer 344, males, in drinking water, site: lung, lesion: several types, types named in the paper, dosed 118 weeks, study length 128 weeks
  TD50: 0.182 mg/kg/day
rat, strain Fischer 344, males, in drinking water, site: lung, lesion: squamous-cell carcinoma, dosed 118 weeks, study length 128 weeks
  TD50: 3.4 mg/kg/day
rat, strain Fischer 344, males, in drinking water, site: nasal cavity, lesion: several types, types named in the paper, dosed 118 weeks, study length 128 weeks
  TD50: 1.66 mg/kg/day
rat, strain Fischer 344, males, in drinking water, site: pancreas, exocrine, lesion: acinar-cell adenoma, dosed 118 weeks, study length 128 weeks
  TD50: 29.2 mg/kg/day
rat, strain Fischer 344, males, in drinking water, site: pancreas, exocrine, lesion: adenocarcinoma, acinar or ductal, dosed 118 weeks, study length 128 weeks
  TD50: 6.93 mg/kg/day
rat, strain Fischer 344, males, in drinking water, site: pancreas, exocrine, lesion: malignant tumor, dosed 111 weeks, study length 111 weeks
  TD50: 0.975 mg/kg/day
rat, strain Fischer 344, males, in drinking water, site: pancreas, exocrine, lesion: several types, types named in the paper, dosed 118 weeks, study length 128 weeks
  TD50: 0.49 mg/kg/day

## CCNN
mouse, strain Swiss albino, females, in drinking water, site: blood vessels, lesion: angioma, dosed 82 weeks, study length 82 weeks
  TD50: 42.9 mg/kg/day
mouse, strain Swiss albino, females, in drinking water, site: blood vessels, lesion: angiosarcoma, dosed 82 weeks, study length 82 weeks
  TD50: 27.6 mg/kg/day
mouse, strain Swiss albino, females, in drinking water, site: blood vessels, lesion: several types, types named in the paper, dosed 82 weeks, study length 82 weeks
  TD50: 11.6 mg/kg/day
mouse, strain Swiss albino, females, in drinking water, site: liver, lesion: angioma, dosed 82 weeks, study length 82 weeks
  TD50: 42.9 mg/kg/day
mouse, strain Swiss albino, females, in drinking water, site: liver, lesion: angiosarcoma, dosed 82 weeks, study length 82 weeks
  TD50: 27.6 mg/kg/day
mouse, strain Swiss albino, females, in drinking water, site: liver, lesion: several types, types named in the paper, dosed 82 weeks, study length 82 weeks
  TD50: 13 mg/kg/day
mouse, strain Swiss albino, females, in drinking water, site: lung, lesion: adenocarcinoma, dosed 82 weeks, study length 82 weeks
  TD50: 14 mg/kg/day
mouse, strain Swiss albino, females, in drinking water, site: lung, lesion: adenoma, dosed 82 weeks, study length 82 weeks
  TD50: 5.62 mg/kg/day
mouse, strain Swiss albino, females, in drinking water, site: lung, lesion: several types, types named in the paper, dosed 82 weeks, study length 82 weeks
  TD50: 5.22 mg/kg/day
mouse, strain Swiss albino, males, in drinking water, site: blood vessels, lesion: angiosarcoma, dosed 72 weeks, study length 72 weeks
  TD50: 46.9 mg/kg/day
mouse, strain Swiss albino, males, in drinking water, site: blood vessels, lesion: several types, types named in the paper, dosed 72 weeks, study length 72 weeks
  TD50: 38.6 mg/kg/day
mouse, strain Swiss albino, males, in drinking water, site: liver, lesion: angiosarcoma, dosed 72 weeks, study length 72 weeks
  TD50: 46.9 mg/kg/day
mouse, strain Swiss albino, males, in drinking water, site: liver, lesion: several types, types named in the paper, dosed 72 weeks, study length 72 weeks
  TD50: 48.1 mg/kg/day
mouse, strain Swiss albino, males, in drinking water, site: lung, lesion: adenoma, dosed 72 weeks, study length 72 weeks
  TD50: 7.82 mg/kg/day
mouse, strain Swiss albino, males, in drinking water, site: lung, lesion: several types, types named in the paper, dosed 72 weeks, study length 72 weeks
  TD50: 8.81 mg/kg/day

## Cc1ccc(S(=O)(=O)NC(=O)NN2CCCCCC2)cc1
mouse, strain B6C3F1, females, in feed, site: any site (literature study), lesion: several types, types named in the paper, dosed 103 weeks, study length 104 weeks
  carcinogen call: negative (inactive)
mouse, strain B6C3F1, males, in feed, site: any site (literature study), lesion: several types, types named in the paper, dosed 103 weeks, study length 104 weeks
  carcinogen call: negative (inactive)
mouse, strain B6C3F1, males, in feed, site: lung, lesion: alveolar/bronchiolar adenoma + alveolar/bronchiolar carcinoma, dosed 103 weeks, study length 104 weeks
  TD50: 24600 mg/kg/day
rat, strain Fischer 344, females, in feed, site: any site (literature study), lesion: several types, types named in the paper, dosed 103 weeks, study length 105 weeks
  carcinogen call: negative (inactive)
rat, strain Fischer 344, males, in feed, site: any site (literature study), lesion: several types, types named in the paper, dosed 103 weeks, study length 104 weeks
  carcinogen call: negative (inactive)
